# Test results published in paper PMC9413271, “Anti-Obesity Evaluation of Averrhoa carambola L. Leaves and Assessment of Its Polyphenols as Potential α-Glucosidase Inhibitors” (Molecules, 2022).
# “Also recorded” adds a separate entry of the source.
# Tested on: α-glucosidase
# Assay: In vitro α-glucosidase inhibitory assay
# Assay type: biochemical
# Set-up: key to IC50 (α-glucosidase inhibition), dash = inactive: (-) indicates inactive compounds
# Conditions: for α-glucosidase inhibitory activity (in words): in vitro; for IC50 (α-glucosidase inhibition), dash = inactive / IC50: sucrose substrate, 37 °C, 30 min, n = 3; for IC50: read-out: IC50 (α-glucosidase inhibition)
# Description: The assay of α-glucosidase inhibitory activity of compounds was adopted from. Briefly, 100 μL of DMSO and 100 μL of α-glucosidase enzyme (5 U/mL in 0.15 M HEPES buffer) were added to 100 μL substrate (0.1 M sucrose solution dissolved into 0.15 M HEPES buffer). The mixture was vortexed for 5 sec and then incubated at 37 °C for 30 min to allow for enzymatic reaction. After incubation, the reaction was stopped by heating at 100 °C for 10 min in a block incubator. The formation of glucose was determined by means of glucose oxidase method, using a BF-5S Biosensor (Oji Scientific Instruments, Hyogo, Japan). Mathematically, α-glucosidase inhibitory activity of each sample was calculated according to this equation: (Average value of control (Ac) − average value of the sample (As))/Ac × 100.
# The IC50 values were calculated from plots of log concentration of inhibitor concentration against the percentage inhibition curves, using Microsoft Excel 2016. The data were expressed as mean ± standard deviation (SD) of at least three independent experiments (n = 3).
α-glucosidase inhibitory activity (in words),"IC50 (α-glucosidase inhibition), dash = inactive",IC50 [µM],SMILES
inactive,-,,"CC1OC(OC2C(Oc3cc(O)c(C4OC(C)C(O)C(OC5OC(C)C(O)C(O)C5O)C4OC(=O)C=Cc4ccccc4)c(O)c3C(=O)CCc3ccc(O)cc3)OC(CO)C2O)C(O)C(O)C1O (centres unmarked) [Compound 7, carambolaside J]"
Potent inhibition,,390,"CC1OC(OC2C(c3c(O)cc4oc(-c5ccc(O)cc5)cc(=O)c4c3O)OC(C)C(O)C2O)C(O)C(O)C1O [Compound 4, apigenin 6-C-α-L-rhamnopyranosyl-(1-2)-β-L-fucopyranoside]"
moderate inhibitory activity,,853.1 ± 0.02,"O=C(CCc1ccc(O)cc1)c1c(O)cc(O)cc1O[C@@H]1O[C@H](CO)[C@@H](O)[C@H](O)[C@H]1O [Phloridzin, phloretin-2′-glucose, reference compound]"
inactive,-,,"CC1OC(c2c(O)cc(OC3OC(CO)C(O)C3O)c(C(=O)CCc3ccc(O)cc3)c2O)C(O)C(O)C1OC1OC(CO)C(O)C(O)C1O (centres unmarked) [Compound 5, carambolaside M]"
inactive,-,,"CC(=O)OC1C(C)OC(c2c(O)cc(OC3OC(CO)C(O)C3OC3OC(C)C(O)C(O)C3O)c(C(=O)CCc3ccc(O)cc3)c2O)C(OC(=O)C=Cc2ccc(O)cc2)C1OC1OC(C)C(O)C(O)C1O (centres unmarked) [Compound 11, Mix of 4″-O-acetyl-carambolaside P and 4″-O-acetyl-carambolaside O]"
inactive,-,,"CC1OC(OC2C(Oc3cc(O)c(C4OC(C)C(O)C(O)C4O)c(O)c3C(=O)CCc3ccc(O)cc3)OC(CO)C2O)C(O)C(O)C1O (centres unmarked) [Compound 6, carambolaside Ia]"

# Continued, molecule first:
SMILES,α-glucosidase inhibitory activity (in words),"IC50 (α-glucosidase inhibition), dash = inactive",IC50 [µM]
"CC(=O)OC1C(C)OC(c2c(O)cc(OC3OC(CO)C(O)C3OC3OC(C)C(O)C(O)C3O)c(C(=O)CCc3ccc(O)cc3)c2O)C(OC(=O)C=Cc2ccccc2)C1OC1OC(C)C(O)C(O)C1O [Compound 8, phloretin 3′-C-(2-O-(E)-cinnamoyl-3-O-β-D-fucopyranosyl-4-O-acetyl)-β-D-fucopyranosyl-6′-O-β-D fucopyranosyl-(1/2)-α-L arabinofuranoside]",inactive,-,
"O=c1cc(-c2ccc(O)cc2)oc2cc(O)c(C3OC(CO)C(O)C(O)C3O)c(O)c12 [Compound 3, apigenin 6-C-β-D-galactopyranoside]",Potent inhibition,,439
"CC1OC(OC2C(c3c(O)cc4oc(-c5ccc(O)c(O)c5)cc(=O)c4c3O)OC(C)C(O)C2O)C(O)C(O)C1O [Compound 2, luteolin 6-C-α-L-rhamnopyranosyl-(1-2)-β-D-fucopyranoside]",highest inhibitory activity among all isolated flavone glycosides; also recorded: Potent inhibition,,328
"CC1OC(OC2C(Oc3cc(O)c(C4OC(C)C(O)C(O)C4OC(=O)C=Cc4ccccc4)c(O)c3C(=O)CCc3ccc(O)cc3)OC(CO)C2O)C(O)C(O)C1O (centres unmarked) [Compound 9, carambolaside I]",inactive,-,
"O=C(CCc1ccc(O)cc1)c1c(O)cc(O)cc1O [Phloretin, reference compound]",,,110.4 ± 0.06
"O=c1cc(-c2ccc(O)cc2)oc2cc(O)cc(O)c12 [Apigenin, reference compound]",,,85.6 ± 0.01
"CC1OC(OC2C(Oc3cc(O)c(C4OC(C)C(O)C(O)C4OC(=O)C=Cc4ccc(O)cc4)c(O)c3C(=O)CCc3ccc(O)cc3)OC(CO)C2O)C(O)C(O)C1O (centres unmarked) [Compound 12, carambolaside Q]",relatively strong activity; also recorded: Potent inhibition,,323.6 ± 0.06
"C[C@H]1O[C@@H](Oc2cc3oc(-c4ccc(O)cc4)cc(=O)c3c(O)c2[C@H]2C[C@@H](O)[C@@H](O)[C@@H](CO)O2)[C@H](O)[C@@H](O)[C@@H]1O [Compound 1, apigenin 6-C-(2-deoxy-β-D-galactopyranoside)-7-O-β-D-quinovopyranoside]",,,613
"O=c1cc(-c2ccc(O)c(O)c2)oc2cc(O)cc(O)c12 [Luteolin, reference compound]",,,48.2 ± 0.02
